Literature values in patent publication US7994210B2, “Method of treating Down Syndrome” (priority 2004, dated 2011).
Read-outs that look alike come from different tables or passages of the source.

What was measured:
acetylcholinesterase = acetylcholinesterase (Homo sapiens, UniProt P22303)
[1] = tested on: beta-amyloid precursor protein (beta-APP)
[2] = listed as (+)9-N-phenylcarbinol eseroline

Chain of acetylcholinesterase (P22303 32-614, species assumed): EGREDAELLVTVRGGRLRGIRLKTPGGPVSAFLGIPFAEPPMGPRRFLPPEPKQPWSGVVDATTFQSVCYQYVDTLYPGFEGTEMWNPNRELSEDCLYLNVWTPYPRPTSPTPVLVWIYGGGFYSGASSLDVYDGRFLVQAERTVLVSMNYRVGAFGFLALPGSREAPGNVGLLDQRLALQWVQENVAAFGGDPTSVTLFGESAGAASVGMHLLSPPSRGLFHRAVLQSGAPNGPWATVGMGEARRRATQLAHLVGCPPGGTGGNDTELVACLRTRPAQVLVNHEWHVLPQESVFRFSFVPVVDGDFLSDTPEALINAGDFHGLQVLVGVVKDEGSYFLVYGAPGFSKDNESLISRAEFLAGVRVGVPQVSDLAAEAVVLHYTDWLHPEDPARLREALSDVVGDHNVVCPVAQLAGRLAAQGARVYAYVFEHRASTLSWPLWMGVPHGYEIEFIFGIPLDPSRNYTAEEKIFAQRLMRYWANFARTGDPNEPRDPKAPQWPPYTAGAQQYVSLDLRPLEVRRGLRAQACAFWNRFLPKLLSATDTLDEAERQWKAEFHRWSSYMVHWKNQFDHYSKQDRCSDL

CN1CC[C@]2(C)c3cc(OC(=O)Nc4ccccc4)ccc3N(C)[C@H]12 [(+)-Phenserine, (+)9-N-phenylcarbinol eseroline]
acetylcholinesterase inhibitor activity (acetylcholinesterase): lacking significant acetylcholinesterase inhibitor activity | acetylcholinesterase inhibitor activity (acetylcholinesterase; [2]): lacks anticholinesterase activity | production/formation of β-APP [1]: reduces the production of β-APP | production/formation of β-APP [1, 2]: inhibits β-APP production
